{"source": "patent US6462040B1", "about": "“Cis-substituted aminocyclopropane derivative” (Daiicho Pharmaceutical Co., Ltd., priority 1996, dated 2002)", "assay_in_all_cases": "Antimicrobial activity, MIC (standard method of the Japan Chemotherapeutic Society)", "type_in_all_cases": "cell-based", "key": {"Ps. aeruginosa, 32104": {"tested_on": "Ps. aeruginosa, 32104", "description": "(§1) The present invention will further be illustrated in greater detail by way of Examples and Reference Examples, but the present invention should not be construed as being limited thereto. The antimicrobial activity of the compounds prepared was examined in accordance with the standard method specified by the Japan Chemotherapeutic Society, and the results obtained were expressed in terms of minimum inhibitory concentration (MIC; μg/ml)."}, "S. aureus, 870307": {"tested_on": "S. aureus, 870307", "description": "as §1"}, "Ps. aeruginosa, 32121": {"tested_on": "Ps. aeruginosa, 32121", "description": "as §1"}, "E. coli, NIHJ": {"tested_on": "E. coli, NIHJ", "description": "as §1"}, "Pr. mirabilis, IFO-3849": {"tested_on": "Pr. mirabilis, IFO-3849", "description": "as §1"}, "Pr. vulgaris, 08601": {"tested_on": "Pr. vulgaris, 08601", "description": "as §1"}, "[1]": {"tested_on": "Str. faecalis, ATCC-19433", "description": "as §1"}, "S. flexneli, 2A 5503": {"tested_on": "S. flexneli, 2A 5503", "description": "as §1"}, "S. epidermidis, 56500": {"tested_on": "S. epidermidis, 56500", "description": "as §1"}, "Ser. marcescens, 10100": {"tested_on": "Ser. marcescens, 10100", "description": "as §1"}, "S. aureaus, 209P": {"tested_on": "S. aureaus, 209P", "description": "as §1"}, "Str. pyogenes, G-36": {"tested_on": "Str. pyogenes, G-36", "description": "as §1"}, "[2]": {"tested_on": "Ps. maltophilia, IID-1275", "description": "as §1"}}}
{"smiles": "Cc1c(N2CCC([C@@H]3C[C@@H]3N)C2)c(F)c(N)c2c(=O)c(C(=O)O)cn([C@@H]3C[C@@H]3F)c12", "note": "(single isomer, unassigned; isomer b) [Example 3]", "values": [{"measurement": "MIC", "setting": "Ps. aeruginosa, 32104", "result": 0.20, "unit": "µg/mL"}, {"measurement": "MIC", "setting": "S. aureus, 870307", "result": 0.025, "unit": "µg/mL"}, {"measurement": "MIC", "setting": "Ps. aeruginosa, 32121", "result": 0.10, "unit": "µg/mL"}, {"measurement": "MIC", "setting": "E. coli, NIHJ", "result": "≦0.003 μg/ml"}, {"measurement": "MIC", "setting": "Pr. mirabilis, IFO-3849", "result": 0.05, "unit": "µg/mL"}, {"measurement": "MIC", "setting": "Pr. vulgaris, 08601", "result": 0.05, "unit": "µg/mL"}, {"measurement": "MIC", "setting": "[1]", "result": 0.025, "unit": "µg/mL"}, {"measurement": "MIC", "setting": "S. flexneli, 2A 5503", "result": "≦0.003 μg/ml"}, {"measurement": "MIC", "setting": "S. epidermidis, 56500", "result": 0.006, "unit": "µg/mL"}, {"measurement": "MIC", "setting": "Ser. marcescens, 10100", "result": 0.10, "unit": "µg/mL"}, {"measurement": "MIC", "setting": "S. aureaus, 209P", "result": "≦0.003 μg/ml"}, {"measurement": "MIC", "setting": "Str. pyogenes, G-36", "result": 0.006, "unit": "µg/mL"}, {"measurement": "MIC", "setting": "[2]", "result": 0.05, "unit": "µg/mL"}]}
